# Read-outs that look alike come from different tables or passages of the source.
# Columns and labels:
# Type in all cases: biochemical
# CDK2/CCNE1 = CDK2/CCNE1 (Homo sapiens, UniProt P24941); assay: CDK2 homogeneous time-resolved fluorescence (HTRF) kinase assay; settings: CDK2/CCNE
# Method in brief: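 TR-FRET read-out (665 nm, or 665/615 ratio) of Eu-antibody detection of phospho-4E-BP1 (Thr37/46) ULight peptide. Enzyme 3 nM, ATP 1 mM, peptide 50 nM, 1% DMSO; 60 min reaction at 23 °C after 20 min compound preincubation. IC50 from 11-point half-log titrations, top typically 10 μM.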
# CDK1/CCNB1 = CDK1/CCNB1 (Homo sapiens, UniProt P06493); assay: CDK1 homogeneous time-resolved fluorescence (HTRF) kinase assay; settings: CDK1/CCNB
# Method in brief: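 HTRF assay with 0.5 nM CDK1/CCNB1, 1 mM ATP, 50 nM ULight-eIF4E-BP1 (Thr37/46) peptide; compound preincubated 20 min, reaction 60 min at 23 °C, EDTA stop, Eu-anti-phospho antibody detection. 11-point half-log titration from 10 μM, 1% DMSO; IC50 from 665 nm or 665/615 signal.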
# CDK4/CCND3 = CDK4/CCND3 (Homo sapiens, UniProt P11802); assay: CDK4 homogeneous time-resolved fluorescence (HTRF) kinase assay; settings: CDK4/CCND
# Method in brief: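 TR-FRET read (665 nm, or 665/615 ratio) of 4E-BP1 Thr37/46 phosphorylation by 1.5 nM CDK4/CCND3 at 1 mM ATP, 50 nM ULight peptide, 1% DMSO. Reaction ran 60 min at 23 °C after 20 min compound–enzyme preincubation. IC50 from 11-point half-log dilutions, top 10 μM.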
# CDK6/CCND1 = CDK6/CCND1 (Homo sapiens, UniProt Q00534); assay: CDK6 homogeneous time-resolved fluorescence (HTRF) kinase assay; settings: CDK6/CCND
# Method in brief: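 Assay conditions: HEPES buffer containing 10 mM MgCl2, 1 mM EGTA, 2 mM DTT, 0.01% Tween 20; 1 nM CDK6/CCND1, 50 nM peptide substrate, 1 mM ATP. Detection after 60 min reaction used 2 nM europium antibody with 340 nm excitation. Potency fitted from half-log series, 11 points.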
# [1] = x = IC50 <25 nM, read-out: CDK2/CCNE IC50 (<25 nM)
# [2] = x = IC50 25-250 nM, read-out: CDK1/CCNB IC50 (25-250 nM)
# [3] = x = IC50 25-250 nM, read-out: CDK4/CCND IC50 (25-250 nM)
# [4] = x = IC50 >250 nM, read-out: CDK6/CCND IC50 (>250 nM column)
# [5] = x = IC50 >250 nM, read-out: CDK4/CCND IC50 (>250 nM column)
# [6] = x = IC50 25-250 nM, read-out: CDK2/CCNE IC50 (25-250 nM)
# [7] = x = IC50 >250 nM, read-out: CDK1/CCNB IC50 (>250 nM column)
# Chain of CDK6/CCND1 (Q00534 whole entry): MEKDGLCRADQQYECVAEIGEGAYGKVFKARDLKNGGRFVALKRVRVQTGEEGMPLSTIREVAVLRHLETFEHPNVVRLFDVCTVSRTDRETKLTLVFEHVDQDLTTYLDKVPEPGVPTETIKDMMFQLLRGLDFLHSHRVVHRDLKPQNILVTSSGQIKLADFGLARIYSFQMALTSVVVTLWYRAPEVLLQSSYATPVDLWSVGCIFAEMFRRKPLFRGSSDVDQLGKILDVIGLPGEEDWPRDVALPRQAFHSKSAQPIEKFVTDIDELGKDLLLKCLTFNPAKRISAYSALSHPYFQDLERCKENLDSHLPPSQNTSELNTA
# Chain of CDK6/CCND1 (P24385 whole entry partner): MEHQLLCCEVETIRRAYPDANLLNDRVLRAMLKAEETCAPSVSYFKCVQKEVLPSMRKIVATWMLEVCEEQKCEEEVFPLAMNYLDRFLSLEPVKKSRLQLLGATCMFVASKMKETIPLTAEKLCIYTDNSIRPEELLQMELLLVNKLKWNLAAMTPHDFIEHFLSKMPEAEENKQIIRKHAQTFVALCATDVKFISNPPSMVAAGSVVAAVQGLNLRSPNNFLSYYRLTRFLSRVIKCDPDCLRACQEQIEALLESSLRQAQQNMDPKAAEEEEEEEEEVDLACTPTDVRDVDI
# Chain of CDK4/CCND3 (P11802 whole entry): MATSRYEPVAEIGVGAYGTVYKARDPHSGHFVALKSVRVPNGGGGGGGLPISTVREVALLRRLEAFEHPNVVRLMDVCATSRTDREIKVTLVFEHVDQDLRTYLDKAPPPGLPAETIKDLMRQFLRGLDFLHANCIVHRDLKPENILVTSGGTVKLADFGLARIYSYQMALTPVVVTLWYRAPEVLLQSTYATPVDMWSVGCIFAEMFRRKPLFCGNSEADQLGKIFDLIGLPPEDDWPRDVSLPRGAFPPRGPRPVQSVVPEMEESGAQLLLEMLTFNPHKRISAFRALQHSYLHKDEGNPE
# Chain of CDK4/CCND3 (P30281 whole entry partner): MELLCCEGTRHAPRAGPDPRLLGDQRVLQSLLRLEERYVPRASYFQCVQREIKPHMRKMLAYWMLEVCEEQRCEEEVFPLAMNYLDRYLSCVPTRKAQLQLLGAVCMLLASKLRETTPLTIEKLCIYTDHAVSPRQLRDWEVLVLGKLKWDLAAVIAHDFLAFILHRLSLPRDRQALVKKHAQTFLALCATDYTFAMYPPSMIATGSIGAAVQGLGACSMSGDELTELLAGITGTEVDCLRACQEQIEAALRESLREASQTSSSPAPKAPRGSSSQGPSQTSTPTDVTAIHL
# Chain of CDK1/CCNB1 (P06493 whole entry): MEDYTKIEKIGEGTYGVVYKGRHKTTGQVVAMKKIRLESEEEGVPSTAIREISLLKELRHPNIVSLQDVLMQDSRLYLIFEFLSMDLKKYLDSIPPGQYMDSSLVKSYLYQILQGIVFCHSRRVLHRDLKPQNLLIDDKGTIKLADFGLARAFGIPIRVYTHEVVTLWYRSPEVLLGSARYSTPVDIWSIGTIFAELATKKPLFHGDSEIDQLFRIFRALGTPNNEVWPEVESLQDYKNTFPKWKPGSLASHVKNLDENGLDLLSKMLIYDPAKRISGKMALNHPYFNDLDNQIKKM
# Chain of CDK1/CCNB1 (P14635 whole entry partner): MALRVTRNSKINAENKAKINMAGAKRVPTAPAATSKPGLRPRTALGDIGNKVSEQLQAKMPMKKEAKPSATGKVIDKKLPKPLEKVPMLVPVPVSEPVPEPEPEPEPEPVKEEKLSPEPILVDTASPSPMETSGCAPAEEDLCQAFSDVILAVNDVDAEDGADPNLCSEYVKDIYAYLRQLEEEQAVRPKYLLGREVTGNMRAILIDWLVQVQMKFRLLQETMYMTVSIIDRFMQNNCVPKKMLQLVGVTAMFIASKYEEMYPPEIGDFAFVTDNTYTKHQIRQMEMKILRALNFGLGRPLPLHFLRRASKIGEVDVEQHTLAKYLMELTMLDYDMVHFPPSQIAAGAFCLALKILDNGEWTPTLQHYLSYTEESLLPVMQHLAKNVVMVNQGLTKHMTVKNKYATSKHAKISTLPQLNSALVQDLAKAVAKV
SMILES,IC50 (CDK2/CCNE1; [1]) [nM],IC50 (CDK1/CCNB1; [2]) [nM],IC50 (CDK4/CCND3; [3]) [nM],IC50 (CDK6/CCND1; [4]) [nM],"IC50 (CDK1/CCNB1; x = IC50 <25 nM, read-out: CDK1/CCNB IC50 (<25 nM)) [nM]","IC50 (CDK6/CCND1; x = IC50 25-250 nM, read-out: CDK6/CCND IC50 (25-250 nM)) [nM]",IC50 (CDK4/CCND3; [5]) [nM],IC50 (CDK2/CCNE1; [6]) [nM],IC50 (CDK1/CCNB1; [7]) [nM],"IC50 (CDK2/CCNE1; x = IC50 >250 nM, read-out: CDK2/CCNE IC50 (>250 nM column)) [nM]"
"CS(=O)(=O)c1ccc(Nc2cc3c(C#Cc4ccc5c(c4)NC(=O)C54CC4)nccc3cn2)cc1 [Ex 445, 6'-((7-((4-(methylsulfonyl)phenyl)amino)-2,6-naphthyridin-1-yl)ethynyl)spiro[cyclopropane-1,3'-indolin]-2'-one]",< 25,25 to 250,25 to 250,–,–,25 to 250,–,–,–,–
"Nc1ncccc1C#Cc1nccc2cnc(Nc3ccc(S(=O)(=O)Nc4nccc(N5CCNCC5)n4)cc3)cc12 [Ex 468, 4-((5-((2-aminopyridin-3-yl)ethynyl)-2,6-naphthyridin-3-yl)amino)-N-(4-(piperazin-1-yl)pyrimidin-2-yl)benzenesulfonamide]",–,–,–,> 250,–,–,> 250,25 to 250,> 250,–
"CNS(=O)(=O)c1ccc(Nc2cc3c(C#Cc4cccnc4N)nccc3cn2)cc1 [Ex 469, 4-((5-((2-aminopyridin-3-yl)ethynyl)-2,6-naphthyridin-3-yl)amino)-N-methylbenzenesulfonamide]",< 25,25 to 250,25 to 250,> 250,–,–,–,–,–,–
"CS(=O)(=O)c1ccc(Nc2cc3c(C#Cc4cnn5ccccc45)nccc3cn2)cc1 [Ex 478, N-(4-(methylsulfonyl)phenyl)-5-(pyrazolo[1,5-a]pyridin-3-ylethynyl)-2,6-naphthyridin-3-amine]",–,–,–,> 250,–,–,> 250,25 to 250,> 250,–
"CC1(C)C(=O)Nc2cc(C#Cc3nccc4cnc(Nc5ccc(S(C)(=O)=O)cc5)cc34)ccc21 [Ex 486, 3,3-dimethyl-6-((7-((4-(methylsulfonyl)phenyl)amino)-2,6-naphthyridin-1-yl)ethynyl)indolin-2-one]",< 25,25 to 250,25 to 250,> 250,–,–,–,–,–,–
"CS(=O)(=O)c1ccc(Nc2cc3c(C#Cc4cncnc4N)nccc3cn2)cc1 [Ex 492, 5-((4-aminopyrimidin-5-yl)ethynyl)-N-(4-(methylsulfonyl)phenyl)-2,6-naphthyridin-3-amine]",–,–,–,> 250,–,–,> 250,25 to 250,> 250,–
"COC(=O)c1ccc2c(C#Cc3nccc4cnc(Nc5ccc(S(C)(=O)=O)cc5)cc34)n[nH]c2c1 [Ex 498, methyl 3-((7-((4-(methylsulfonyl)phenyl)amino)-2,6-naphthyridin-1-yl)ethynyl)-1H-indazole-6-carboxylate]",–,–,–,> 250,–,–,> 250,–,> 250,> 250
"COc1ccc(C#Cc2nccc3cnc(Nc4ccc(S(C)(=O)=O)cc4)cc23)cc1F [Ex 499, 5-((3-fluoro-4-methoxyphenyl)ethynyl)-N-(4-(methylsulfonyl)phenyl)-2,6-naphthyridin-3-amine]",–,–,–,> 250,–,–,> 250,25 to 250,> 250,–
"Cc1c(C#Cc2nccc3cnc(Nc4ccc(S(C)(=O)=O)cc4)cc23)ccnc1Cl [Ex 500, 5-((2-chloro-3-methylpyridin-4-yl)ethynyl)-N-(4-(methylsulfonyl)phenyl)-2,6-naphthyridin-3-amine]",–,–,–,> 250,–,–,> 250,25 to 250,> 250,–
"CS(=O)(=O)c1ccc(Nc2cc3c(C#Cc4cnc5[nH]c(=O)oc5c4)nccc3cn2)cc1 [Ex 501, 6-((7-((4-(methylsulfonyl)phenyl)amino)-2,6-naphthyridin-1-yl)ethynyl)oxazolo[4,5-b]pyridin-2(3H)-one]",–,–,–,> 250,–,–,> 250,25 to 250,> 250,–

# Second part, the compound after the results:
IC50 (CDK2/CCNE1; [1]) [nM],IC50 (CDK1/CCNB1; [2]) [nM],IC50 (CDK4/CCND3; [3]) [nM],IC50 (CDK6/CCND1; [4]) [nM],"IC50 (CDK1/CCNB1; x = IC50 <25 nM, read-out: CDK1/CCNB IC50 (<25 nM)) [nM]","IC50 (CDK6/CCND1; x = IC50 25-250 nM, read-out: CDK6/CCND IC50 (25-250 nM)) [nM]",IC50 (CDK4/CCND3; [5]) [nM],IC50 (CDK2/CCNE1; [6]) [nM],IC50 (CDK1/CCNB1; [7]) [nM],"IC50 (CDK2/CCNE1; x = IC50 >250 nM, read-out: CDK2/CCNE IC50 (>250 nM column)) [nM]",SMILES
< 25,25 to 250,25 to 250,> 250,–,–,–,–,–,–,"CC1(C)C(=O)Nc2cc(C#Cc3nccc4cnc(Nc5ccc(S(=O)(=O)NC6CCOCC6)cc5)cc34)ccc21 [Ex 443, 4-((5-((3,3-dimethyl-2-oxoindolin-6-yl)ethynyl)-2,6-naphthyridin-3-yl)amino)-N-(tetrahydro-2H-pyran-4-yl)benzenesulfonamide]"
< 25,–,25 to 250,> 250,< 25,–,–,–,–,–,"CC1(C)C(=O)Nc2cc(C#Cc3nccc4cnc(Nc5ccc(S(=O)(=O)C6CC6)cc5)cc34)ccc21 [Ex 444, 6-((7-((4-(cyclopropylsulfonyl)phenyl)amino)-2,6-naphthyridin-1-yl)ethynyl)-3,3-dimethylindolin-2-one]"
< 25,25 to 250,25 to 250,> 250,–,–,–,–,–,–,"CCNS(=O)(=O)c1ccc(Nc2cc3c(C#Cc4cccnc4N)nccc3cn2)cc1 [Ex 447, 4-((5-((2-aminopyridin-3-yl)ethynyl)-2,6-naphthyridin-3-yl)amino)-N-ethylbenzenesulfonamide]"
< 25,25 to 250,–,> 250,–,–,> 250,–,–,–,"Cc1cc(S(N)(=O)=O)ccc1Nc1cc2c(C#Cc3cccnc3N)nccc2cn1 [Ex 448, 4-((5-((2-aminopyridin-3-yl)ethynyl)-2,6-naphthyridin-3-yl)amino)-3-methylbenzenesulfonamide]"
–,–,–,> 250,–,–,> 250,25 to 250,> 250,–,"Cn1cc(NS(=O)(=O)c2ccc(Nc3cc4c(C#Cc5cccnc5N)nccc4cn3)cc2)cn1 [Ex 450, 4-((5-((2-aminopyridin-3-yl)ethynyl)-2,6-naphthyridin-3-yl)amino)-N-(1-methyl-1H-pyrazol-4-yl)benzenesulfonamide]"
< 25,25 to 250,–,> 250,–,–,> 250,–,–,–,"CC1(C)C(=O)Nc2cc(C#Cc3nccc4cnc(Nc5ccc(S(=O)(=O)NC6CCC6)cc5)cc34)ccc21 [Ex 457, N-cyclobutyl-4-((5-((3,3-dimethyl-2-oxoindolin-6-yl)ethynyl)-2,6-naphthyridin-3-yl)amino)benzenesulfonamide]"
< 25,25 to 250,–,> 250,–,–,> 250,–,–,–,"CC(C)S(=O)(=O)c1ccc(Nc2cc3c(C#Cc4ccc5c(c4)NC(=O)C5(C)C)nccc3cn2)cc1 [Ex 458, 6-((7-((4-(isopropylsulfonyl)phenyl)amino)-2,6-naphthyridin-1-yl)ethynyl)-3,3-dimethylindolin-2-one]"
< 25,25 to 250,25 to 250,> 250,–,–,–,–,–,–,"CCS(=O)(=O)c1ccc(Nc2cc3c(C#Cc4ccc5c(c4)NC(=O)C5(C)C)nccc3cn2)cc1 [Ex 459, 6-((7-((4-(ethylsulfonyl)phenyl)amino)-2,6-naphthyridin-1-yl)ethynyl)-3,3-dimethylindolin-2-one]"
< 25,–,–,> 250,–,–,> 250,–,> 250,–,"CS(=O)(=O)c1ccc(Nc2cc3c(C#Cc4ccc5c(c4)NC(=O)C54CCC4)nccc3cn2)cc1 [Ex 460, 6'-((7-((4-(methylsulfonyl)phenyl)amino)-2,6-naphthyridin-1-yl)ethynyl)spiro[cyclobutane-1,3'-indolin]-2'-one]"
< 25,–,–,> 250,–,–,> 250,–,> 250,–,"CCC1(CC)C(=O)Nc2cc(C#Cc3nccc4cnc(Nc5ccc(S(C)(=O)=O)cc5)cc34)ccc21 [Ex 461, 3,3-diethyl-6-((7-((4-(methylsulfonyl)phenyl)amino)-2,6-naphthyridin-1-yl)ethynyl)indolin-2-one]"
< 25,–,–,> 250,–,–,> 250,–,> 250,–,"Nc1ncccc1C#Cc1nccc2cnc(Nc3ccc(S(N)(=O)=O)cc3F)cc12 [Ex 466, 4-((5-((2-aminopyridin-3-yl)ethynyl)-2,6-naphthyridin-3-yl)amino)-3-fluorobenzenesulfonamide]"
< 25,25 to 250,–,> 250,–,–,> 250,–,–,–,"CNS(=O)(=O)c1ccc(Nc2cc3c(C#Cc4cccnc4N)nccc3cn2)c(F)c1 [Ex 467, 4-((5-((2-aminopyridin-3-yl)ethynyl)-2,6-naphthyridin-3-yl)amino)-3-fluoro-N-methylbenzenesulfonamide]"

# Reference: patent publication US20260325533A1, “CDK INHIBITOR COMPOUNDS” (ALEKSIA THERAPEUTICS, INC., priority 2023, published 2026)
